Measured values as given in ChEMBL document CHEMBL5303573, “Mapping human microbiome drug metabolism by gut bacteria and their genes” (Nature, 2019).

Assays:
[1] = The drug is tested on Bifidobacterium longum subsp. Infantis strain: CCUG52486 for biotransformation. The drug concentrations were measured before and after a 12-h incubation by liquid-chromatography-coupled mass spectrometry (LC–MS); conditions: 2 µM
[2] = The drug is tested on Bifidobacterium ruminantium strain: fecal isolate for biotransformation. The drug concentrations were measured before and after a 12-h incubation by liquid-chromatography-coupled mass spectrometry (LC–MS); conditions: 2 µM
[3] = The drug is tested on Bacteroides cellulosilyticus strain: DSM14838 for biotransformation. The drug concentrations were measured before and after a 12-h incubation by liquid-chromatography-coupled mass spectrometry (LC–MS); conditions: 2 µM
[4] = The drug is tested on Bacteroides dorei strain: DSM17855 for biotransformation. The drug concentrations were measured before and after a 12-h incubation by liquid-chromatography-coupled mass spectrometry (LC–MS); conditions: phocaeicola dorei, 2 µM
[5] = The drug is tested on Bacteroides finegoldii strain: DSM17565 for biotransformation. The drug concentrations were measured before and after a 12-h incubation by liquid-chromatography-coupled mass spectrometry (LC–MS); conditions: 2 µM
[6] = The drug is tested on Bacteroides fragilis strain: HMW610 for biotransformation. The drug concentrations were measured before and after a 12-h incubation by liquid-chromatography-coupled mass spectrometry (LC–MS); conditions: 2 µM
[7] = The drug is tested on Bacteroides uniformis strain: ATCC8492 for biotransformation. The drug concentrations were measured before and after a 12-h incubation by liquid-chromatography-coupled mass spectrometry (LC–MS); conditions: 2 µM
[8] = The drug is tested on Bacteroides vulgatus strain: ATCC8482 for biotransformation. The drug concentrations were measured before and after a 12-h incubation by liquid-chromatography-coupled mass spectrometry (LC–MS); conditions: phocaeicola vulgatus, 2 µM
[9] = The drug is tested on Clostridium symbiosum strain: ATCC14940 for biotransformation. The drug concentrations were measured before and after a 12-h incubation by liquid-chromatography-coupled mass spectrometry (LC–MS); conditions: 2 µM
[10] = The drug is tested on Ruminococcus lactaris strain: ATCC29176 for biotransformation. The drug concentrations were measured before and after a 12-h incubation by liquid-chromatography-coupled mass spectrometry (LC–MS); conditions: 2 µM
[11] = The drug is tested on Ruminococcus torques strain: ATCC27756 for biotransformation. The drug concentrations were measured before and after a 12-h incubation by liquid-chromatography-coupled mass spectrometry (LC–MS); format: ADME; set-up: dose 2 uM, timepoint 0 vs 12 hours; conditions: 2 µM
[12] = bifidobacterium adolescentis, 12 h, 2 µM
Description: The drug is tested on Bifidobacterium adolescentis strain: ATCC 15703 for biotransformation. The drug concentrations were measured before and after a 12-h incubation by liquid-chromatography-coupled mass spectrometry (LC–MS)

[13] = bacteroides eggerthii, 12 h, 2 µM
Description: The drug is tested on Bacteroides eggerthii strain: DSM20697 for biotransformation. The drug concentrations were measured before and after a 12-h incubation by liquid-chromatography-coupled mass spectrometry (LC–MS)

[14] = bacteroides intestinalis, 12 h, 2 µM
Description: The drug is tested on Bacteroides intestinalis strain: DSM17393 for biotransformation. The drug concentrations were measured before and after a 12-h incubation by liquid-chromatography-coupled mass spectrometry (LC–MS)

[15] = bacteroides stercoris, 12 h, 2 µM
Description: The drug is tested on Bacteroides stercoris strain: ATCC43183 for biotransformation. The drug concentrations were measured before and after a 12-h incubation by liquid-chromatography-coupled mass spectrometry (LC–MS)

[16] = bacteroides thetaiotaomicron, 12 h, 2 µM
Description: The drug is tested on Bacteroides thetaiotaomicron strain: 7330 for biotransformation. The drug concentrations were measured before and after a 12-h incubation by liquid-chromatography-coupled mass spectrometry (LC–MS)

[17] = akkermansia muciniphila, 12 h, 2 µM
Description: The drug is tested on Akkermansia muciniphila strain: ATCC BAA-835 for biotransformation. The drug concentrations were measured before and after a 12-h incubation by liquid-chromatography-coupled mass spectrometry (LC–MS)

[18] = The drug is tested on Providencia rettgeri strain: DSM1131 for biotransformation. The drug concentrations were measured before and after a 12-h incubation by liquid-chromatography-coupled mass spectrometry (LC–MS); format: ADME; set-up: dose 2 uM, timepoint 0 vs 12 hours; conditions: 2 µM
[19] = roseburia intestinalis, 12 h, 2 µM
Description: The drug is tested on Roseburia intestinalis strain: L1-82 for biotransformation. The drug concentrations were measured before and after a 12-h incubation by liquid-chromatography-coupled mass spectrometry (LC–MS)

| Compound | Bacterial Biotransformation [1] | Bacterial Biotransformation [2] | Bacterial Biotransformation [3] | Bacterial Biotransformation [4] | Bacterial Biotransformation [5] | Bacterial Biotransformation [6] | Bacterial Biotransformation [7] | Bacterial Biotransformation [8] | Bacterial Biotransformation [9] | Bacterial Biotransformation [10] | Bacterial Biotransformation [11] | Bacterial Biotransformation [12] | Bacterial Biotransformation [13] | Bacterial Biotransformation [14] | Bacterial Biotransformation [15] | Bacterial Biotransformation [16] | Bacterial Biotransformation [17] | Bacterial Biotransformation [18] | Bacterial Biotransformation [19] |
| --- | --- | --- | --- | --- | --- | --- | --- | --- | --- | --- | --- | --- | --- | --- | --- | --- | --- | --- | --- |
| C[C@]12CCC(=O)C=C1[C@@H]1C[C@@H]1[C@H]1[C@@H]3[C@@H]4C[C@@H]4[C@@]4(CCC(=O)O4)[C@@]3(C)CC[C@@H]12 [DROSPIRENONE] | Compound NOT metabolized | Compound NOT metabolized | Compound NOT metabolized | Compound metabolized | Compound NOT metabolized | Compound metabolized | Compound metabolized | Compound metabolized | Compound NOT metabolized | Compound NOT metabolized | Compound NOT metabolized | Compound NOT metabolized | Compound NOT metabolized | Compound NOT metabolized | Compound NOT metabolized | Compound NOT metabolized | Compound NOT metabolized |  |  |
| CC(C)c1nc(CN(C)C(=O)N[C@H](C(=O)N[C@@H](Cc2ccccc2)C[C@H](O)[C@H](Cc2ccccc2)NC(=O)OCc2cncs2)C(C)C)cs1 [RITONAVIR] | Compound NOT metabolized | Compound NOT metabolized | Compound NOT metabolized | Compound metabolized | Compound NOT metabolized |  | Compound metabolized | Compound metabolized | Compound NOT metabolized | Compound NOT metabolized | Compound NOT metabolized |  | Compound metabolized |  | Compound NOT metabolized | Compound NOT metabolized | Compound NOT metabolized | Compound NOT metabolized | Compound NOT metabolized |
| CC(C)(C)NC[C@H](O)COc1nsnc1N1CCOCC1.O=C(O)/C=C\C(=O)O [TIMOLOL MALEATE] | Compound NOT metabolized | Compound NOT metabolized | Compound NOT metabolized | Compound NOT metabolized | Compound NOT metabolized |  | Compound NOT metabolized | Compound NOT metabolized | Compound NOT metabolized | Compound NOT metabolized | Compound NOT metabolized | Compound NOT metabolized | Compound NOT metabolized | Compound NOT metabolized | Compound NOT metabolized |  | Compound NOT metabolized | Compound NOT metabolized | Compound NOT metabolized |
| CN(CCOc1ccc(CC2SC(=O)NC2=O)cc1)c1ccccn1.O=C(O)/C=C\C(=O)O (centres undefined) [ROSIGLITAZONE MALEATE] | Compound NOT metabolized |  | Compound NOT metabolized | Compound NOT metabolized | Compound NOT metabolized |  | Compound NOT metabolized | Compound NOT metabolized | Compound NOT metabolized | Compound NOT metabolized | Compound NOT metabolized | Compound NOT metabolized | Compound NOT metabolized | Compound NOT metabolized | Compound NOT metabolized | Compound NOT metabolized | Compound NOT metabolized | Compound NOT metabolized | Compound NOT metabolized |
| C#C[C@]1(OC(C)=O)CC[C@H]2[C@@H]3CCC4=C[C@@H](OC(C)=O)CC[C@@H]4[C@H]3CC[C@@]21C [ETHYNODIOL DIACETATE] | Compound NOT metabolized | Compound NOT metabolized | Compound NOT metabolized | Compound NOT metabolized | Compound NOT metabolized |  |  | Compound NOT metabolized |  | Compound NOT metabolized | Compound NOT metabolized | Compound NOT metabolized | Compound NOT metabolized | Compound NOT metabolized | Compound NOT metabolized | Compound NOT metabolized | Compound NOT metabolized | Compound NOT metabolized | Compound NOT metabolized |
| COc1ccc(CN2CCNCC2)c(OC)c1OC.Cl.Cl [TRIMETAZIDINE DIHYDROCHLORIDE] | Compound metabolized | Compound NOT metabolized | Compound metabolized | Compound metabolized | Compound NOT metabolized |  | Compound metabolized | Compound metabolized | Compound NOT metabolized | Compound NOT metabolized | Compound NOT metabolized | Compound NOT metabolized | Compound NOT metabolized | Compound metabolized | Compound metabolized | Compound metabolized | Compound NOT metabolized | Compound metabolized | Compound NOT metabolized |
| O=C1N=C([O-])NC1(c1ccccc1)c1ccccc1.[Na+] [PHENYTOIN SODIUM] |  | Compound metabolized | Compound metabolized | Compound metabolized | Compound NOT metabolized | Compound NOT metabolized | Compound metabolized | Compound metabolized | Compound metabolized |  | Compound NOT metabolized | Compound NOT metabolized |  | Compound NOT metabolized | Compound NOT metabolized |  |  | Compound NOT metabolized | Compound NOT metabolized |
| Cc1ccc(-c2nc3ccc(C)cn3c2CC(=O)N(C)C)cc1 [ZOLPIDEM] | Compound NOT metabolized | Compound NOT metabolized | Compound NOT metabolized |  | Compound NOT metabolized | Compound NOT metabolized | Compound NOT metabolized | Compound NOT metabolized | Compound NOT metabolized | Compound NOT metabolized | Compound NOT metabolized | Compound NOT metabolized |  | Compound NOT metabolized | Compound NOT metabolized | Compound NOT metabolized | Compound NOT metabolized | Compound NOT metabolized | Compound NOT metabolized |
| CCCCCCOC(=O)/N=C(/N)c1ccc(NCc2nc3cc(C(=O)N(CCC(=O)OCC)c4ccccn4)ccc3n2C)cc1.CS(=O)(=O)O [DABIGATRAN ETEXILATE MESYLATE] | Compound NOT metabolized | Compound NOT metabolized | Compound NOT metabolized | Compound NOT metabolized | Compound NOT metabolized |  | Compound NOT metabolized | Compound NOT metabolized | Compound NOT metabolized | Compound NOT metabolized |  | Compound NOT metabolized | Compound NOT metabolized | Compound NOT metabolized | Compound NOT metabolized | Compound NOT metabolized | Compound NOT metabolized | Compound NOT metabolized | Compound NOT metabolized |
